In patent US20080181877A1, “Method For Monitoring the Effect of Compounds on Foxc2 Expression” (LEANGENE AB, C/O CIT Ekonomiservice AB, priority 2006, published 2008):

Experiments:
Foxc2 expression [1] = test: Monitoring Foxc2 expression in MEFs by X-gal staining; format: cell-based, mouse; settings: acute treatment; MEFs from heterozygous Foxc2nLacZ E13.5 embryos
Method: FIG. 4 specifies the expression of Foxc2 during adipocyte differentiation of mouse embryonic fibroblasts (MEFs), which were isolated from Foxc2nLacZ±E13.5 embryos as well as wt littermates as control. The MEFs were treated with adipocyte differentiation mix (0.5 mM IBMX, 0.25 μM Dex and 10 μg/mL insulin) and X-gal stained at different time points after start of differentiation. Expression of Foxc2 increases during the course of adipocyte differentiation as judge by increasing β-galactosidase activity.
MEFs were isolated from E13.5 embryos from Foxc2nLacZ±heterozygous intercrosses and genotyped by PCR on DNA from the tail. The head, limbs and viscera were removed from embryos and the remains were minced with a razor blade and incubated in 0.25% trypsin, 0.1% EDTA for 1 h at 37° C. The cell suspension was plated in DMEM containing 10% fetal calf serum and antibiotics (100 units of penicillin and 100 μg/mL streptomycin). Once the cultures reached confluency, 1×10^6 cells were plated on 10-cm tissue culture plates (Falcon) and considered passage 0.
A cell based high-throughput screening system has been established by isolation of MEFs from heterozygous Foxc2nLacZ±E13.5 embryos as well as from wt embryos as a control.

Foxc2 expression [2] = test: High through-put screening: beta-gal activity (Beta-glo kit) in Foxc2nLacZ MEFs differentiated into adipocytes; format: cell-based, mouse
Method: Primary MEFs from both wild type and Foxc2nLacZ knock-in mice were maintained in DMEM supplied with 10% FBS and antibiotics. For differentiation into adipocytes the MEFs were grown until confluency and then stimulated (Day 0) with a differentiation media (DMEM, 10% FBS, antibiotics, 1 uM dexamethasone, 0.5 mM isobutyl-methyl-xanthine, 10 ug/mL insulin, 20 ng/ml FGF (all from Sigma), and 1 uM rosiglitazone (Alexis)). New differentiation media was added at day 3. At day 5 the differentiation media was removed and the cells were cultured in a media containing DMEM, 10% FBS, antibiotics, 10 ug/mL insulin, 1 uM rosiglitazone, and 20 ng/ml FGF. This media was changed every second day. From day 10 the cells were kept DMEM supplied with 10% FBS and antibiotics for 24 hours as a wash out period before initiating the experiments.
Foxc2nLacZ MEFs were plated onto gelatine coated 96 well plates. Differentiation was initialized after confluence according to protocol. […] After a wash out period for 24 hours the cells were subjected to different compounds for the indicated time points and subsequently induction of β-gal enzyme activity was measured using the Beta-glo kit (Promega) and a luminometric plate reader. Confluent cells differentiated into adipocytes were detected by increased X-gal staining (FIG. 5a-d), Foxc2nLacZ protein levels increased transiently during the differentiation process. […]

Compound	Foxc2nLacZ protein levels (X-gal staining) (Foxc2 expression [1])	beta-gal activity (Foxc2 expression [2]; Foxc2nLacZ MEFs differentiated into adipocytes, 96 well plates, 50 μg per well at 0 h, acute treatment, Beta-glo kit)	levels of reporter gene over time (Foxc2 expression [2]; single dose, gene construct with in frame fusion of Foxc2 with a reporter gene)
TNFα	levels could be induced		
insulin: Insulin, known to be an inducer of Foxc2, may be utilized as a control	levels could be induced		
CCCCCCCCCCCCCC(=O)O[C@@H]1[C@@H](C)[C@@]2(O)[C@@H](C=C(CO)C[C@]3(O)C(=O)C(C)=C[C@@H]23)[C@@H]2C(C)(C)[C@]12OC(C)=O [TPA, 12-O-tetradecanoylphorbol-13-acetate]		increase in beta-gal activity	moderate increasing of the levels of reporter gene remaining for long periods at similar levels
